The subject of test [1] is adult female mosquitoes (A. aegypti). The test is described as follows: Mosquito excretion experiments (excretory capacity). The format is in vivo, Aedes aegypti. Conditions: 1 h after injection, mean ±SEM. The procedure:
The Aedes aegypti mosquito colony used in the present study is identical to that described previously. As before, only adult female mosquitoes 3–10 days post emergence were utilized for experiments.
The excretory capacity of mosquitoes was measured as described. In brief, after anesthetizing mosquitoes on ice, their hemolymph was injected as described above with 900 nL of a K^+-PBS vehicle containing 1.15% DMSO, 0.077% β-cyclodextrin, and 0.008% Solutol, or the vehicle containing VU625 (0.77 mM) to deliver a dose of 690 pmol of VU625 per mosquito. In experiments where probenecid was used, the vehicle was supplemented with water- soluble probenecid […] to deliver a dose of 3.4 nmol of probenecid per mosquito. After injection, the mosquitoes were placed immediately in a graduated, packed-cell volume tube (MidSci, St. Louis, MO; 5 mosquitoes per tube) and held at 28°C. The volume of urine excreted at 60 min post injection was measured as described previously, and all mosquitoes were confirmed to be alive at the end of 60 min period. For each treatment, 6–18 independent trials of 5 mosquitoes per treatment were performed.
Prism (GraphPad Software) was used to generate a dose-response curve for the toxicity of VU625; the doses (x-axis) were first log transformed and then the mortality data was normalized using Prism, where the smallest value and largest values in a data set equal ‘0%’ and ‘100%’, respectively. The data were then fitted using a ‘biphasic’ algorithm (<100 constraint) to calculate potencies (ED25 and ED75 values). To compare 1) the toxic effects among the vehicle, probenecid, VU625, and VU625 + probenecid treatments, and 2) the excretory capacity among the vehicle, probenecid, VU625, and VU625 + probenecid treatments, one-way ANOVAs were performed with Newman-Keuls posttests.

In test [2] the test system is mosquitoes. The test is described as follows: Toxicity when applied to the cuticle (topical). The format is in vivo. Conditions: Piermarini, unpublished observations.

Consider `CCC(=O)N1c2ccc(S(=O)(=O)Nc3cccc(OC)c3)cc2CC1C` (stereo not drawn) [VU625, N-(3-methoxyphenyl)-2-methyl-1-propionylindoline-5-sulfonamide], for which the “excretory capacity (urine excreted)” value in test [1] (VU625 690 pmol + probenecid 3.4 nmol per mosquito in 900 nL vehicle) is 236.7±24.53 nL/female; in test [1] (VU625 690 pmol per mosquito in 900 nL vehicle), 583.3±29.52 nL/female. In test [2], the “toxicity when applied to the cuticle” value was “lack of topical activity”.

The record behind these values is PMC4222822, “Discovery and Characterization of a Potent and Selective Inhibitor of Aedes aegypti Inward Rectifier Potassium Channels” (PLoS ONE, 2014).
